Measurements taken from patent publication US11890288B2, “Sulfonamide or sulfinamide compound having effect of inducing BRD4 protein degradation and pharmaceutical use thereof” (MITSUBISHI TANABE PHARMA CORPORATION, priority 2020, dated 2024).

Columns and labels:
BRD4 protein = BRD4 protein (Homo sapiens (Human), UniProt O60885); experiment: BRD4 protein degradation inducing action in LNCaP cells (immunofluorescence, 6 hr); assay type: cell-based; conditions: anti-BRD4 fluorescence intensity
How it was run: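 Read-out is BRD4 immunofluorescence intensity (560/572 nm) after 6 hr compound treatment of LNCaP cells in 10% FBS/RPMI1640, with fixation, permeabilization and anti-BRD4 staining. Linear interpolation between the two concentrations flanking 50% of untreated intensity gives DC50.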

[1] = system: human prostate cancer LNCaP cells; experiment: Cytotoxic action on LNCaP cells (WST-8, 96 hr); assay type: cell-based; conditions: 96 hr culture
How it was run: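 IC50 values reflect 50% cell survival relative to untreated cells, interpolated linearly between the two concentrations that bracket it. Survival was read by WST-8 after 96 hr of compound treatment of cells grown in 10% FBS/RPMI1640 at 37° C.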

DC50 (BRD4 protein)	Structure (SMILES)	IC50 [1]
0.046 nM	CCc1ccc(NS(=O)(=O)c2ccc(CCNC(=O)c3cnc(-c4ccc(C5=N[C@@H](CC(=O)OC)c6nnc(C)n6-c6sc(C)c(C)c65)cc4)cn3)cc2)c2[nH]cc(C#N)c12 [Example 107, methyl [(6S)-4-(4-{5-[(2-{4-[(3-cyano-4-ethyl-1H-indol-7-yl)sulfamoyl]phenyl}ethyl)carbamoyl]pyrazin-2-yl}phenyl)-2,3,9-trimethyl-6H-thieno[3,2-f][1,2,4]triazolo[4,3-a][1,4]diazepin-6-yl]acetate]	0.26 nM
0.42 nM	COC(=O)C[C@@H]1N=C(c2ccc(-c3ccc(C(=O)NCc4ccc(S(=O)(=O)Nc5ccc(C)c6c(C#N)c[nH]c56)cc4)c(Cl)c3)cc2)c2c(sc(C)c2C)-n2c(C)nnc21 [Example 3, methyl [(6S)-4-{3′-chloro-4′-[({4-[(3-cyano-4-methyl-1H-indol-7-yl)sulfamoyl]phenyl}methyl)carbamoyl][1,1′-biphenyl]-4-yl}-2,3,9-trimethyl-6H-thieno[3,2-f][1,2,4]triazolo[4,3-a][1,4]diazepin-6-yl]acetate]	0.092 nM
0.51 nM	Cc1sc2c(c1C)C(c1ccc(-c3ccc(C(=O)NCc4ccc(S(=O)(=O)Nc5ccc(C)c6c(C#N)c[nH]c56)cc4)cc3F)cc1)=N[C@@H](CC(=O)OC(C)(C)C)c1nnc(C)n1-2 [Example Compound 142, t-butyl [(6S)-4-{4′-[({4-[(3-cyano-4-methyl-1H-indol-7-yl)sulfamoyl]phenyl}methyl)carbamoyl]-2′-fluoro[1,1′-biphenyl]-4-yl)-2,3,9-trimethyl-6H-thieno[3,2-f][1,2,4]triazolo[4,3-a][1,4]diazepin-6-yl]acetate]	1.3 nM
0.38 nM	CCc1ccc(NS(=O)(=O)c2ccc(CNC(=O)c3ccc(-c4ccc(C5=N[C@@H](CC(=O)OC(C)(C)C)c6nnc(C)n6-c6sc(C)c(C)c65)cc4)cc3)cc2)c2[nH]cc(C#N)c12 [Example Compound 135, t-butyl [(6S)-4-{4′-[({4-[(3-cyano-4-ethyl-1H-indol-7-yl)sulfamoyl]phenyl}methyl)carbamoyl][1,1′-biphenyl]-4-yl}-2,3,9-trimethyl-6H-thieno[3,2-f][1,2,4]triazolo[4,3-a][1,4]diazepin-6-yl]acetate]	0.66 nM
0.03 nM	COC(=O)C[C@@H]1N=C(c2ccc(-c3cnc(C(=O)N[C@H](C)c4ccc(S(=O)(=O)Nc5ccc(C)c6c(C#N)c[nH]c56)cc4)cn3)cc2)c2c(sc(C)c2C)-n2c(C)nnc21 [Example 103, methyl {(6S)-4-[4-(5-{[(1R)-1-{4-[(3-cyano-4-methyl-1H-indol-7-yl)sulfamoyl]phenyl}ethyl]carbamoyl}pyrazin-2-yl)phenyl]-2,3,9-trimethyl-6H-thieno[3,2-f][1,2,4]triazolo[4,3-a][1,4]diazepin-6-yl}acetate]	0.067 nM
0.18 nM	COC(=O)C[C@@H]1N=C(c2ccc(-c3ccc(C(=O)NCc4ccc(S(=O)(=O)Nc5ccc(C)c6c(C#N)c[nH]c56)cc4)nn3)cc2)c2c(sc(C)c2C)-n2c(C)nnc21 [Example Compound 149, methyl [(6S)-4-(4-{6-[({4-[(3-cyano-4-methyl-1H-indol-7-yl)sulfamoyl]phenyl}methyl)carbamoyl]pyridazin-3-yl}phenyl)-2,3,9-trimethyl-6H-thieno[3,2-f][1,2,4]triazolo[4,3-a][1,4]diazepin-6-yl]acetate]	0.54 nM
0.13 nM	Cc1sc2c(c1C)C(c1ccc(-c3ccc(C(=O)NCCc4ccc(S(=O)(=O)Nc5ccc(C)c6c(C#N)c[nH]c56)cc4)cc3)cc1)=N[C@@H](CC(=O)OC(C)(C)C)c1nnc(C)n1-2 [Example 64, t-butyl [(6S)-4-{4′-[(2-{4-[(3-cyano-4-methyl-1H-indol-7-yl)sulfamoyl]phenyl}ethyl)carbamoyl][1,1′-biphenyl]-4-yl}-2,3,9-trimethyl-6H-thieno[3,2-f][1,2,4]triazolo[4,3-a][1,4]diazepin-6-yl]acetate]	0.25 nM
0.14 nM	CCc1ccc(NS(=O)(=O)c2ccc([C@@H](C)NC(=O)c3ccc(-c4ccc(C5=N[C@@H](CC(=O)OC)c6nnc(C)n6-c6sc(C)c(C)c65)cc4)c(F)c3F)cc2)c2[nH]cc(C#N)c12 [Example Compound 122, methyl [(6S)-4-(4′-{[(1R)-1-{4-[(3-cyano-4-ethyl-1H-indol-7-yl)sulfamoyl]phenyl}ethyl]carbamoyl}-2′,3′-difluoro[1,1′-biphenyl]-4-yl)-2,3,9-trimethyl-6H-thieno[3,2-f][1,2,4]triazolo[4,3-a][1,4]diazepin-6-yl]acetate]	0.39 nM
0.32 nM	Cc1sc2c(c1C)C(c1ccc(-c3cc(Cl)c(C(=O)NCc4ccc(S(=O)(=O)Nc5ccc(C)c6c(C#N)c[nH]c56)cc4)cc3F)cc1)=N[C@@H](C)c1nnc(C)n1-2 [Example 71, 5-chloro-N-({4-[(3-cyano-4-methyl-1H-indol-7-yl)sulfamoyl]phenyl}methyl)-2-fluoro-4′-[(6S)-2,3,6,9-tetramethyl-6H-thieno[3,2-f][1,2,4]triazolo[4,3-a][1,4]diazepin-4-yl][1,1′-biphenyl]-4-carboxamide]	0.61 nM
0.069 nM	CCc1ccc(NS(=O)(=O)c2ccc(CNC(=O)c3ccc(-c4ccc(C5=N[C@@H](CC(=O)OC)c6nnc(C)n6-c6sc(C)c(C)c65)cc4)cn3)cc2)c2[nH]cc(C#N)c12 [Example 108, methyl [(6S)-4-(4-{6-[({4-[(3-cyano-4-ethyl-1H-indol-7-yl)sulfamoyl]phenyl}methyl)carbamoyl]pyridin-3-yl}phenyl)-2,3,9-trimethyl-6H-thieno[3,2-f][1,2,4]triazolo[4,3-a][1,4]diazepin-6-yl]acetate]	0.23 nM
1.6 nM	Cc1sc2c(c1C)C(c1ccc(-c3ccc(C(=O)NCc4ccc(S(=O)(=O)Nc5ccc(C)c6c(C#N)c[nH]c56)cc4)cc3Cl)cc1)=N[C@@H](CC(=O)OC(C)(C)C)c1nnc(C)n1-2 [Example Compound 143, t-butyl [(6S)-4-{2′-chloro-4′-[({4-[(3-cyano-4-methyl-1H-indol-7-yl)sulfamoyl]phenyl}methyl)carbamoyl][1,1′-biphenyl]-4-yl}-2,3,9-trimethyl-6H-thieno[3,2-f][1,2,4]triazolo[4,3-a][1,4]diazepin-6-yl]acetate]	2.4 nM
0.036 nM	COC(=O)C[C@@H]1N=C(c2ccc(-c3cnc(C(=O)NCc4ccc(S(=O)(=O)Nc5ccc(C)c6c(C#N)c[nH]c56)cc4)cn3)cc2)c2c(sc(C)c2C)-n2c(C)nnc21 [Example 65, methyl [(6S)-4-(4-{5-[({4-[(3-cyano-4-methyl-1H-indol-7-yl)sulfamoyl]phenyl}methyl)carbamoyl]pyrazin-2-yl}phenyl)-2,3,9-trimethyl-6H-thieno[3,2-f][1,2,4]triazolo[4,3-a][1,4]diazepin-6-yl]acetate]	0.071 nM
0.082 nM	CCc1ccc(NS(=O)(=O)c2ccc([C@@H](C)NC(=O)c3ccc(-c4ccc(C5=N[C@@H](CC(=O)OC)c6nnc(C)n6-c6sc(C)c(C)c65)cc4)cn3)cc2)c2[nH]cc(C#N)c12 [Example 109, methyl {(6S)-4-[4-(6-{[(1R)-1-{4-[(3-cyano-4-ethyl-1H-indol-7-yl)sulfamoyl]phenyl}ethyl]carbamoyl}pyridin-3-yl)phenyl]-2,3,9-trimethyl-6H-thieno[3,2-f][1,2,4]triazolo[4,3-a][1,4]diazepin-6-yl}acetate]	0.36 nM
0.42 nM	Cc1sc2c(c1C)C(c1ccc(-c3ccc(C(=O)NCc4ccc(S(=O)(=O)Nc5ccc(C)c6c(C#N)c[nH]c56)cc4)cc3)cc1)=N[C@@H](C)c1nnc(C)n1-2 [Example 32, N-({4-[(3-cyano-4-methyl-1H-indol-7-yl)sulfamoyl]phenyl}methyl)-4′-[(6S)-2,3,6,9-tetramethyl-6H-thieno[3,2-f][1,2,4]triazolo[4,3-a][1,4]diazepin-4-yl][1,1′-biphenyl]-4-carboxamide]	0.69 nM
0.47 nM	Cc1cc(-c2ccc(C3=N[C@@H](CC(=O)OC(C)(C)C)c4nnc(C)n4-c4sc(C)c(C)c43)cc2)ccc1C(=O)NCc1ccc(S(=O)(=O)Nc2ccc(C)c3c(C#N)c[nH]c23)cc1 [Example Compound 141, t-butyl [(6S)-4-{4′-[({4-[(3-cyano-4-methyl-1H-indol-7-yl)sulfamoyl]phenyl}methyl)carbamoyl]-3′-methyl[1,1′-biphenyl]-4-yl}-2,3,9-trimethyl-6H-thieno[3,2-f][1,2,4]triazolo[4,3-a][1,4]diazepin-6-yl]acetate]	0.92 nM
0.054 nM	CCc1ccc(NS(=O)(=O)c2ccc(CNC(=O)c3cnc(-c4ccc(C5=N[C@@H](CC(=O)OC)c6nnc(C)n6-c6sc(C)c(C)c65)cc4)cn3)cc2)c2[nH]cc(C#N)c12 [Example 105, methyl [(6S)-4-(4-{5-[({4-[(3-cyano-4-ethyl-1H-indol-7-yl)sulfamoyl]phenyl}methyl)carbamoyl]pyrazin-2-yl}phenyl)-2,3,9-trimethyl-6H-thieno[3,2-f][1,2,4]triazolo[4,3-a][1,4]diazepin-6-yl]acetate]	0.13 nM
38 nM	COC(=O)C[C@@H]1N=C(c2ccc(N3CC[C@@H](C(=O)NCc4ccc(S(=O)(=O)Nc5ccc(C)c6c(C#N)c[nH]c56)cc4)C3)cc2)c2c(sc(C)c2C)-n2c(C)nnc21 [Example 4, methyl [(6S)-4-(4-{(3R)-3-[({4-[(3-cyano-4-methyl-1H-indol-7-yl)sulfamoyl]phenyl}methyl)carbamoyl]pyrrolidin-1-yl}phenyl)-2,3,9-trimethyl-6H-thieno[3,2-f][1,2,4]triazolo[4,3-a][1,4]diazepin-6-yl]acetate]	16 nM
